Reference: US20050147640A1, “Noctuid attractant composition” (priority 2002, published 2005)

Test system: Noctuidae
Assay: Sticky board trap comparison of attractant blends beside cotton crops
Assay type: in vivo
From the text: Comparisons of a range of attractant blends were made using sticky board traps adjacent to cotton crops on the Darling Downs region of Queensland, Australia. This experimental set up allowed comparison of attractants in the presence of the crop volatiles without confusing factors such as the effect of non-volatile feeding stimulants.
A series of rectangular boards 1.2 metres high×1.5 metres wide were placed approximately 1 metre outside the edge of a cotton field at spacings of 50 metres. The boards were suspended at a height of 1 metre above the ground using star posts. Four 100 mm diameter round holes were made in the centre of the boards and cotton wicks containing experimental attractant mixes were suspended in these holes using a paper clip. The boards were coated on both sides with 500 to 700 grams of polybutene sticker so insects attracted to the experimental volatiles would become trapped on the boards. Impregnated wicks were placed in the traps mid afternoon and traps were checked after 48 hours.

O=CCc1ccccc1 [PAA, Phenylacetaldehyde]
Mean (Moths/board) (Table 3, total of all Noctuidae, 3.12 mg of each ingredient per sticky board, traps checked after 48 hours): 1.00 Moths/board | Comparison of moth catch in words (Table 3 experiment, sticky traps): not significantly attractive
